Results reported in patent US20260144890A1, “ANTIBODY DRUG CONJUGATE COMPRISING NMT INHIBITOR CONJUGATED TO AN ANTIBODY” (MyricX Pharma Limited, priority 2024, published 2026).
Read-outs that look alike come from different tables or passages of the source.

Assays:
SU-DHL-10 cell line = assay: Cell cytotoxicity in SU-DHL-10 cell line (CTG, 72 h); type: cell-based; details: Homo sapiens, SU-DHL10, 72 h, 72 h treatment
Experimental: Certain NMT inhibitors were tested in the SU-DHL-10 cell line (human B cell lymphoma). Compounds which show efficacy in this assay are expected to be useful as agents for treating or preventing hyperproliferative disorders such as cancer.
Cells were seeded in 96-well microplates and treated with compounds or cisplatin (as a positive control) at 9 increasing concentrations in technical triplicate. […] On day 1, 90 μL of various cell suspensions with the number of cells ranging from 5000-8000 cells/well were seeded into wells of a 96-well plate (Corning). The number of cells to be seeded was previously determined. • 2. All 96-wells plates with cells were placed in an incubator overnight at 37° C. with 5% CO2. • 3. On day 2, cells were observed under a microscope ensuring the cells treated with vehicle control were in good condition. • 4. A dilution series of the test compounds and cisplatin were prepared at 10× the final concentrations required. 10 μL/well of 10× compound solution was added to the corresponding plates. The final volume was 100 μL/well for all the plates. […]
Luminescence was recorded using an EnVision Multi Label Reader. […]
(LumTest article=luminescence in test article treated well; LumNone treated=luminescence in vehicle treated well; LumMedium control=luminescence in a well containing only medium and no cells; LumNone treated−LumMedium control was set as 100%).

[1] = tested on: BT474 breast cancer cells; assay: Orthotopic breast cancer xenograft model (BT474); type: in vivo, mouse
Experimental: During the study, body weights were measured three times weekly for all animals. Animals were given Diet Gel for the entire duration on the study.

[2] = tested on: VCaP human prostate cancer xenograft; assay: VCaP prostate cancer xenograft model; type: in vivo, mouse
Experimental: In this study, 144 mice were inoculated subcutaneously in the right front flank region with 1×10^7 viable VCaP tumour cells resuspended in 0.1 mL of PBS mixed with Matrigel (1:1) for tumour development on Study Day −20. 80 mice were assigned to 8 treatment groups when tumour volumes averaged ˜162.16 mm^3 on Study Day 0. Dosing commenced the following day and all animals were dosed intravenously with ADC Example 4, ifinatamab-deruxtecan (ifinatamab-Dxd) or unconjugated ifinatamab. All mice received two doses of test agent, on Study Day 1 and Study Day 8. The study was terminated on Study Day 30. • The 8 groups were assigned as follows: […]

LNCaP tumours = assay: LNCaP prostate cancer xenograft model; details: for Day 28 tumour volume (mean ± SEM) / Tumour growth inhibition (TGI, %): IV, Q7D (x3); for Tumour growth inhibition (TGI, %): day 28
Experimental: A total of 84 male NOD SCID mice aged 5-8 weeks and weighing 25-30 g were used for the study.
• Duration of observation: 35 days. • Dosing volume: 5 mL/kg for all IV doses

[3] = tested on: JIMT-1 human breast xenograft; type: in vivo
Description: The study was terminated on the Study Day 60.

[4] = tested on: JIMT-1 human breast xenograft; assay: JIMT1 breast cancer xenograft model (Balb/c nude mice, ADC Example 1); type: in vivo, mouse
Experimental: In this study, 72 mice were inoculated subcutaneously in the right front flank region with 1×10^7 viable JIMT-1 tumour cells resuspended in Matrigel (1:1) on Study Day −15. When tumours reached a tumour volume of approximately 120-150 mm^3, 60 mice with the most similarly sized tumours were randomly assigned to 6 treatment groups on Study Day 0. […] The study was terminated on Study Day 58. The dosing regimen was as follows:
The body weight of all mice in each group was measured and recorded three times weekly throughout the duration of the study. Moreover, the tumour volume was measured (mm^3) and recorded using digital calipers three times weekly throughout the duration of the study. In particular, the length, width, and depth of the tumour were each measured and used to calculate tumour volume (mm^3). The results are shown in FIG. 58, FIG. 59, and FIG. 60.

CNCc1cnc2ccc(-c3ccc(F)c(F)c3OCCc3c(C(O)C(C)(C)C)nn(C)c3C)cn12 (single isomer, unassigned) [compound 13, 1-(4-(2-(2,3-difluoro-6-(3-((methylamino)methyl)imidazo[1,2-a]pyridin-6-yl)phenoxy)ethyl)-1,5-dimethyl-1H-pyrazol-3-yl)-2,2-dimethylpropan-1-ol]
IC50 (SU-DHL-10 cell line): 0.7 nM

CNCc1cnc2ccc(-c3ccc(F)c(F)c3OCCc3c(C(O)C(C)(C)C)nn(C)c3C)cn12 (centres unmarked) [NMT inhibitor 1, 1-(4-(2-(2,3-difluoro-6-(3-((methylamino)methyl)imidazo[1,2-a]pyridin-6-yl)phenoxy)ethyl)-1,5-dimethyl-1H-pyrazol-3-yl)-2,2-dimethylpropan-1-ol]
tumour size ([1]; 2.0 mg/kg, 2 days dosing then 5 day holiday, stopped at day 13): reduced tumour size | body weights of mice ([1]; trastuzumab and ADC 2.5 and 5 mg/kg, NMT inhibitor 1 2 mg/kg): decreased significantly

ifinatamab
tumour volume compared to vehicle alone ([2]; 2.5 mg/kg): no significant difference | ΔTGI (Study Day 17) ([2]; 2.5 mg/kg QW x 2 weeks IV): 8.47% | tumour volume compared to vehicle alone ([2]; 5 mg/kg): no significant difference | ΔTGI (Study Day 17) ([2]; 5 mg/kg QW x 2 weeks IV): 12.44% | LNCaP tumour volume compared to vehicle (LNCaP tumours; 5 mg/kg): no significant effect | Day 28 tumour volume (mean ± SEM) (LNCaP tumours; 5 mg/kg): 551.4 ± 73.1 mm^3 | Tumour growth inhibition (TGI, %) (LNCaP tumours; 5 mg/kg): 30.6% | LNCaP tumour volume compared to vehicle (LNCaP tumours; 10 mg/kg): no significant effect | Day 28 tumour volume (mean ± SEM) (LNCaP tumours; 10 mg/kg): 666.56 ± 103.2 mm^3 | Tumour growth inhibition (TGI, %) (LNCaP tumours; 10 mg/kg): 13.0%

sacituzumab
tumour volume compared to vehicle alone ([3]; 2.5 mg/kg): no significant difference | ΔTGI (Study Day 28) ([3]; 2.5 mg/kg QW x 2 weeks IV): 12.11% | tumour volume compared to vehicle alone ([3]; 5 mg/kg): significant decrease | ΔTGI (Study Day 28) ([3]; 5 mg/kg QW x 2 weeks IV): 14.44%

sacituzumab govitecan
tumour volume compared to vehicle alone ([3]; 2.5 mg/kg): significant decrease | ΔTGI (Study Day 28) ([3]; 2.5 mg/kg QW x 2 weeks IV): 13.13% | tumour volume compared to vehicle alone ([3]; 5 mg/kg): significant decrease | ΔTGI (Study Day 28) ([3]; 5 mg/kg QW x 2 weeks IV): 23.39% | efficacy of treatment ([3]; Group 4, 5 mg/kg): only partially efficacious

trastuzumab emtansine
tumour volume compared to vehicle alone ([4]; 5 mg/kg IV on Study Days 0, 7, 28 and 35, agent alone): no decrease in tumour volume | mice that completely responded (of 10) ([4]; 5 mg/kg IV, agent alone): no mice | mice that partially responded (of 10) ([4]; 5 mg/kg IV, agent alone): no mice

B1: ifinatamab-DXd (conjugate, chains of the INN, looked up)
VH: QVQLVQSGAEVKKPGSSVKVSCKASGYTFTNYVMHWVRQAPGQGLEWMGYINPYNDDVKYNEKFKGRVTITADESTSTAYMELSSLRSEDTAVYYCARWGYYGSPLYYFDYWGQGTLVTVSS
VL: EIVLTQSPATLSLSPGERATLSCRASSRLIYMHWYQQKPGQAPRPLIYATSNLASGIPARFSGSGSGTDFTLTISSLEPEDFAVYYCQQWNSNPPTFGQGTKVEIK
modifications: deruxtecan (DXd) payload
tumour volume compared to vehicle alone ([2]; 2.5 mg/kg): no significant difference | ΔTGI (Study Day 17) ([2]; 2.5 mg/kg QW x 2 weeks IV): 5.24% | tumour volume compared to vehicle alone ([2]; 5 mg/kg): significantly higher tumour volume | ΔTGI (Study Day 17) ([2]; 5 mg/kg QW x 2 weeks IV): 2.86% | LNCaP tumour volume compared to vehicle (LNCaP tumours; 5 mg/kg): slowed the growth of LNCaP tumours to a lesser extent | Day 28 tumour volume (mean ± SEM) (LNCaP tumours; 5 mg/kg): 364.6 ± 51.7 mm^3 | Tumour growth inhibition (TGI, %) (LNCaP tumours; 5 mg/kg): 58.8% | LNCaP tumour volume compared to vehicle (LNCaP tumours; 10 mg/kg): significantly reduced the mean volume of LNCaP tumours | Day 28 tumour volume (mean ± SEM) (LNCaP tumours; 10 mg/kg): 259.5 ± 50.3 mm^3 | Tumour growth inhibition (TGI, %) (LNCaP tumours; 10 mg/kg): 75.0%
